Source: article PMC8982737, “Discovery of S-217622, a Noncovalent Oral SARS-CoV-2 3CL Protease Inhibitor Clinical Candidate for Treating COVID-19” (Journal of Medicinal Chemistry, 2022)

Tested on: SARS-CoV-2
Test: microbe, parasite or virus in culture
Type: cell-based
Details: Severe acute respiratory syndrome coronavirus 2, VeroE6/TMPRSS2; read-out: EC50 against all tested SARS-CoV-2 variants

## Cn1cnc(Cn2c(=O)[nH]/c(=N\c3cc4cn(C)nc4cc3Cl)n(Cc3cc(F)c(F)cc3F)c2=O)n1 [Compound 3, (6E)-6-[(6-Chloro-2-methyl-2H-indazol-5-yl)imino]-3-[(1-methyl-1H-1,2,4-triazol-3-yl)methyl]-1-(2,4,5-trifluorobenzyl)-1,3,5-triazinane-2,4-dione]
  EC50: 290 to 500 nM
